Patent publication US8822494B2 (Pfizer Inc., priority 2012, dated 2014)
Structures can show the parent of a compound that is named as a salt. Where two headings read alike, the source gives them in different places.

Tests used:
[1] = molecular target: T1, Human D1 (Homo sapiens (Human), UniProt P21728); experiment: Human D1 Receptor Binding Assay ([3H]-SCH23390 competition); settings: read-out: Human D1 Receptor Binding, Ki (μM); Geometric mean of 2-3 determinations; over-expressing LTK human cell lines, 0.5 nM [3H]-SCH23390, 30 min at 37° C.; footnote b = single determination, c = geometric mean of ≧4 determinations
Experimental: D1 binding assays were performed using over-expressing LTK human cell lines. […] These ligand and tissue concentrations were used in time course studies to determine linearity and equilibrium conditions for binding. […] The pellet was resuspended in assay buffer [50 mM Tris (pH 7.4@ RT) containing 4 mM MgSO4 and 0.5 mM EDTA]. […] Non-specific binding was determined by radioligand binding in the presence of a saturating concentration of (+)-Butaclamol (10 μM), a D1 antagonist. After a 30 minute incubation period at 37° C., assay samples were rapidly filtered through Unifilter-96 GF/B PEI-coated filter plates and rinsed with 50 mM Tris buffer (pH 7.4 at 4° C.). […] Ki values were calculated according to the Cheng-Prusoff equation: […]

[2] = molecular target: T1, Human D1; experiment: D1 cAMP HTRF Assay; format: cell-based; settings: HEK293T/hD1#1 stable cell line, 30 min at room temperature, footnote a = geometric mean of ≧7 determinations
Text: This assay was used to determine the ability of a test compound to agonize (including partially agonize) D1. A Mab anti-cAMP labeled Cryptate visualizes the tracer. […] The signal, therefore, is inversely proportional to the concentration of cAMP in the sample.
The cAMP Dynamic kit was obtained from Cisbio International (Cisbio 62AM4PEJ). Multidrop Combi (Thermo Scientific) was used for assay additions. An EnVision (PerkinElmer) reader was used to read HTRF.
A HEK293T/hD1#1 stable cell line was constructed internally (Pfizer Ann Arbor).
Media was removed and cell pellet was re-suspended in PBS/[…] generating 2e5 cells/mL. […] Working solutions of cAMP-D2 and anti-cAMP-cryptate were prepared according to Cisbio instructions. […] The assay plate was incubated for 1 hour at room temperature. The assay plate was read on an EnVision plate reader using Cisbio recommended settings.
Data analysis was done using computer software. Percent effects were calculated from the compound controls. Ratio EC50 was determined using the raw ratio data from the EnVision reader. The cAMP standard curve was used in an analysis program to determine cAMP concentrations from raw ratio data. cAMP EC50 was determined using the calculated cAMP data.

[3] = read-out: Human D1 cAMP HTRF, EC50 (μM), Geometric mean of 2-6 determinations

T1 sequence (P21728 whole entry): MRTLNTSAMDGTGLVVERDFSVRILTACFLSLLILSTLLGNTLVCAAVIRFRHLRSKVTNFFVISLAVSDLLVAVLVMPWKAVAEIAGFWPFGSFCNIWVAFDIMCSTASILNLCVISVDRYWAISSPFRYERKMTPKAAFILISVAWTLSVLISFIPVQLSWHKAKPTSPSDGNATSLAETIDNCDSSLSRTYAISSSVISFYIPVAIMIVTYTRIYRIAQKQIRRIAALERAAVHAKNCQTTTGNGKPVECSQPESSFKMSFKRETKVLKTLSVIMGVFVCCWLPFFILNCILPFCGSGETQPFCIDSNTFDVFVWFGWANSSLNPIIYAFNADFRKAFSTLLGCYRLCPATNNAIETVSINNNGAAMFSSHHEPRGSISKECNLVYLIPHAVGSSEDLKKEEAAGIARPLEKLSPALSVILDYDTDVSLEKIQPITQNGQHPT

## Cc1cc(Oc2nccc3[nH]ccc23)ccc1-c1c(C)n[nH]c(=O)c1C (single isomer, unassigned; ent-2) [Example 10, 4,6-dimethyl-5-[2-methyl-4-(1H-pyrrolo[3,2-c]pyridin-4-yloxy)phenyl]pyridazin-3(2H)-one, ENT-2]
[1]
  Ki: 0.00504 µM
[2]; [3]
  EC50: 0.00431 µM

## Cc1cc(Oc2nccc3[nH]ncc23)ccc1-c1cn[nH]c(=O)c1C [Example 42, 4-methyl-5-[2-methyl-4-(1H-pyrazolo[4,3-c]pyridin-4-yloxy)phenyl]pyridazin-3(2H)-one, trifluoroacetate salt]
[1]
  Ki: 0.123 µM
[2]
  EC50: 0.34 µM

## Cc1cc(Oc2nccc3n[nH]cc23)ccc1-c1c(C)n[nH]c(=O)c1C (single isomer, unassigned) [Example 4, (−)-4,6-dimethyl-5-[2-methyl-4-(1H-pyrazolo[4,3-c]pyridin-4-yloxy)phenyl]pyridazin-3(2H)-one]
[1]
  Ki: 0.0104 µM
[2]
  EC50: 0.0105 µM

## Cc1ncnc(C)c1-c1cc(F)c(Oc2nccc3[nH]ccc23)cc1F [Example 22, 4-[4-(4,6-dimethylpyrimidin-5-yl)-2,5-difluorophenoxy]-1H-pyrrolo[3,2-c]pyridine]
[1]
  Ki: 0.0548 µM
[2]
  EC50: 0.538 µM

## Cc1ncnc(C#N)c1-c1ccc(Oc2nccc3[nH]ccc23)cc1F [Example 16, 5-[2-fluoro-4-(1H-pyrrolo[3,2-c]pyridin-4-yloxy)phenyl]-6-methylpyrimidine-4-carbonitrile]
[1]
  Ki: 0.0283 µM
[2]
  EC50: 0.396 µM

## Cc1ncc2nccn2c1-c1ccc(Oc2nccc3[nH]ccc23)cc1 [Example 19, 6-methyl-5-[4-(1H-pyrrolo[3,2-c]pyridin-4-yloxy)phenyl]imidazo[1,2-a]pyrazine]
[1]
  Ki: 0.0159 µM
[2]
  EC50: 0.464 µM

## Cc1cc(Oc2nccc3[nH]ccc23)ccc1-c1c(C)ncc(=O)n1C (single isomer, unassigned) [Example 26, (−)-1,5-dimethyl-6-[2-methyl-4-(1H-pyrrolo[3,2-c]pyridin-4-yloxy)phenyl]pyrazin-2(1H)-one]
[1]
  Ki: 0.00456 µM
[2]
  EC50: 0.073 µM

## Cc1ncnc(C)c1-c1ccc(Oc2nccc3[nH]ccc23)cc1C#N [Example 21, 2-(4,6-dimethylpyrimidin-5-yl)-5-(1H-pyrrolo[3,2-c]pyridin-4-yloxy)benzonitrile]
[1]
  Ki: 0.102 µM
[2]
  EC50: 0.247 µM

## Cc1ncnc(C)c1-c1ccc(Oc2nccc3[nH]ccc23)cc1F [Example 1, 4-[4-(4,6-dimethylpyrimidin-5-yl)-3-fluorophenoxy]-1H-pyrrolo[3,2-c]pyridine]
[1]
  Ki: 0.0303 µM
[2]
  EC50: 0.176 µM

## Cc1ncnc(C)c1-c1ccc(Oc2nccc3[nH]ccc23)c(F)c1F [Example 23, 4-[4-(4,6-dimethylpyrimidin-5-yl)-2,3-difluorophenoxy]-1H-pyrrolo[3,2-c]pyridine]
[1]
  Ki: 0.0538 µM
[2]
  EC50: 0.59 µM

## Cc1n[nH]c(=O)c(C)c1-c1ccc(Oc2nccc3[nH]ncc23)cc1 [Example 41, 4,6-dimethyl-5-[4-(1H-pyrazolo[4,3-c]pyridin-4-yloxy)phenyl]pyridazin-3(2H)-one]
[1]
  Ki: 0.0409 µM
[2]
  EC50: 0.127 µM

## Cc1cc(Oc2nccc3[nH]cc(C#N)c23)ccc1-c1c(C)ncnc1C [Example 44, 4-[4-(4,6-dimethylpyrimidin-5-yl)-3-methylphenoxy]-1H-pyrrolo[3,2-c]pyridine-3-carbonitrile]
[1]
  Ki: 0.0046 µM
[2]
  EC50: 0.0553 µM

## Cc1cc(Oc2nccc3[nH]ccc23)ccc1-c1c(C)cnnc1C (single isomer, unassigned; ent-1) [Example 11, 4-[4-(3,5-dimethylpyridazin-4-yl)-3-methylphenoxy]-1H-pyrrolo[3,2-c]pyridine, ENT-1]
[1]
  Ki: 0.0141 µM
[2]; [3]
  EC50: 0.117 µM

## Cc1cc(Oc2nccc3[nH]ncc23)ccc1-n1c(C)nc2cnccc21 [Example 30, 4-[3-methyl-4-(2-methyl-1H-imidazo[4,5-c]pyridin-1-yl)phenoxy]-1H-pyrazolo[4,3-c]pyridine]
[1]
  Ki: 0.268 µM
[2]
  EC50: 2.76 µM

## Cc1cc(Oc2nccc3n[nH]cc23)ccc1-c1c(C)c(=O)[nH]c(=O)n1C (single isomer, unassigned) [Example 8, (−)-1,5-dimethyl-6-[2-methyl-4-(1H-pyrazolo[4,3-c]pyridin-4-yloxy)phenyl]pyrimidine-2,4(1H,3H)-dione]
[1]
  Ki: 0.00183 µM
[2]
  EC50: < 0.00222 µM
